From ChEMBL document CHEMBL1201862, “PubChem BioAssay data set” (2004)
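Exposure lasted 48 hours, with cells grown in 96-well plates and compounds tested at five concentrations. Here, GI50 denotes the concentration required for 50% inhibition of growth.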 The source made the active and inactive calls. Cut-off read from the data, not from the text of the source: active = GI50 up to about 1.1 µM and inactive = higher.

Assays:
Assay in all cases: NCI anticancer screen, dose series, 48 h
SW-620 = tested on: SW-620
DLD-1 = tested on: DLD-1
HOP-18 = tested on: HOP-18
OVCAR-5 = tested on: OVCAR-5
DMS-273 = tested on: DMS-273
K562 = tested on: K562
SN12C = tested on: SN12C
HOP-62 = tested on: HOP-62
NCI-H522 = tested on: NCI-H522
OVCAR-8 = tested on: OVCAR-8
KM12 = tested on: KM12
HL-60 = tested on: HL-60
SF-268 = tested on: SF-268
COLO 205 = tested on: COLO 205
HCT-15 = tested on: HCT-15
HCT-116 = tested on: HCT-116
SNB-75 = tested on: SNB-75
SK-MEL-5 = tested on: SK-MEL-5
SF-295 = tested on: SF-295
ACHN = tested on: ACHN
CCRF-CEM = tested on: CCRF-CEM
DMS-114 = tested on: DMS-114
M14 = tested on: M14
SNB-19 = tested on: SNB-19
SK-MEL-2 = tested on: SK-MEL-2
NCI-H226 = tested on: NCI-H226
OVCAR-3 = tested on: OVCAR-3
RXF 393 = tested on: RXF 393
OVCAR-4 = tested on: OVCAR-4
HOP-92 = tested on: HOP-92
EKVX = tested on: EKVX
M19-MEL = tested on: M19-MEL
XF498 = tested on: XF498
A549 = tested on: A549
HT-29 = tested on: HT-29
Malme-3M = tested on: Malme-3M
SR = tested on: SR
HCC 2998 = tested on: HCC 2998
NCI-H460 = tested on: NCI-H460
MOLT-4 = tested on: MOLT-4
SF-539 = tested on: SF-539
RPMI-8226 = tested on: RPMI-8226
IGROV-1 = tested on: IGROV-1
SK-OV-3 = tested on: SK-OV-3
LXFL 529 = tested on: LXFL 529
KM-20L2 = tested on: KM-20L2
SNB-78 = tested on: SNB-78
CAKI-1 = tested on: CAKI-1
SK-MEL-28 = tested on: SK-MEL-28
NCI-H23 = tested on: NCI-H23
786-0 = tested on: 786-0
UACC-257 = tested on: UACC-257
A498 = tested on: A498
LOX IMVI = tested on: LOX IMVI
U-251 = tested on: U-251
UO-31 = tested on: UO-31
UACC-62 = tested on: UACC-62
TK-10 = tested on: TK-10

Cn1c2c(cc(-c3ccccc3)c1=O)COc1ccccc1-2
GI50 (SW-620): 45.9 µM (inactive)
GI50 (DLD-1): 36.6 µM (inactive)
GI50 (HOP-18): > 100 µM (inactive)
GI50 (OVCAR-5): 14.5 µM (inactive)
GI50 (DMS-273): 19.5 µM (inactive)
GI50 (K562): 23.9 µM (inactive)
GI50 (SN12C): 35 µM (inactive)
GI50 (HOP-62): 42.3 µM (inactive)
GI50 (NCI-H522): 17.9 µM (inactive)
GI50 (OVCAR-8): 34 µM (inactive)
GI50 (KM12): 13 µM (inactive)
GI50 (HL-60): 29.8 µM (inactive)
GI50 (SF-268): 28.6 µM (inactive)
GI50 (COLO 205): 29 µM (inactive)
GI50 (HCT-15): 32.1 µM
GI50 (HCT-116): 16.9 µM (inactive)
GI50 (SNB-75): 23.4 µM (inactive)
GI50 (SK-MEL-5): 17.5 µM (inactive)
GI50 (SF-295): 25.8 µM (inactive)
GI50 (ACHN): 24 µM (inactive)
GI50 (CCRF-CEM): 30.5 µM (inactive)
GI50 (DMS-114): 15.4 µM (inactive)
GI50 (M14): 31.6 µM (inactive)
GI50 (SNB-19): 40.9 µM (inactive)
GI50 (SK-MEL-2): 14 µM (inactive)
GI50 (NCI-H226): 32.5 µM (inactive)
GI50 (OVCAR-3): 26.4 µM (inactive)
GI50 (RXF 393): 36.1 µM (inactive)
GI50 (OVCAR-4): 37.8 µM (inactive)
GI50 (HOP-92): 28.8 µM (inactive)
GI50 (EKVX): 9.04 µM (inactive)
GI50 (M19-MEL): 25.6 µM (inactive)
GI50 (XF498): 8.04 µM (inactive)
GI50 (A549): 33.3 µM (inactive)
GI50 (HT-29): 19.9 µM (inactive)
GI50 (Malme-3M): 20.3 µM (inactive)
GI50 (SR): 39.1 µM (inactive)
GI50 (HCC 2998): 24.8 µM (inactive)
GI50 (NCI-H460): 20.3 µM (inactive)
GI50 (MOLT-4): 23.1 µM (inactive)
GI50 (SF-539): 49.1 µM (inactive)
GI50 (RPMI-8226): 20.2 µM (inactive)
GI50 (IGROV-1): 35.5 µM (inactive)
GI50 (SK-OV-3): 37.8 µM (inactive)
GI50 (LXFL 529): 31.4 µM (inactive)
GI50 (KM-20L2): 25.1 µM (inactive)
GI50 (SNB-78): 33.7 µM (inactive)
GI50 (CAKI-1): 37.5 µM (inactive)
GI50 (SK-MEL-28): 24.1 µM (inactive)
GI50 (NCI-H23): 26.9 µM (inactive)
GI50 (786-0): 39.3 µM (inactive)
GI50 (UACC-257): 36.9 µM (inactive)
GI50 (A498): 40.6 µM (inactive)
GI50 (LOX IMVI): 15.2 µM (inactive)
GI50 (U-251): 41.6 µM (inactive)
GI50 (UO-31): 27.5 µM (inactive)
GI50 (UACC-62): 14.7 µM (inactive)

CCC1(N=[N+]=[N-])C(=O)c2ccccc2N(c2ccccc2)C1=O (configuration not stated)
GI50 (SW-620): > 100 µM (inactive)
GI50 (DLD-1): > 100 µM (inactive)
GI50 (HOP-18): > 100 µM (inactive)
GI50 (OVCAR-5): > 100 µM (inactive)
GI50 (DMS-273): > 100 µM (inactive)
GI50 (K562): > 100 µM (inactive)
GI50 (SN12C): > 100 µM (inactive)
GI50 (HOP-62): > 100 µM (inactive)
GI50 (NCI-H522): > 100 µM (inactive)
GI50 (OVCAR-8): > 100 µM (inactive)
GI50 (KM12): > 100 µM (inactive)
GI50 (HL-60): > 100 µM (inactive)
GI50 (SF-268): > 100 µM (inactive)
GI50 (COLO 205): > 100 µM (inactive)
GI50 (HCT-15): > 100 µM
GI50 (HCT-116): > 100 µM (inactive)
GI50 (TK-10): > 100 µM (inactive)
GI50 (SNB-75): > 100 µM (inactive)
GI50 (SK-MEL-5): > 100 µM (inactive)
GI50 (SF-295): > 100 µM (inactive)
GI50 (ACHN): > 100 µM (inactive)
GI50 (CCRF-CEM): > 100 µM (inactive)
GI50 (DMS-114): > 100 µM (inactive)
GI50 (M14): > 100 µM (inactive)
GI50 (SNB-19): > 100 µM (inactive)
GI50 (SK-MEL-2): > 100 µM (inactive)
GI50 (OVCAR-3): > 100 µM (inactive)
GI50 (OVCAR-4): > 100 µM (inactive)
GI50 (HOP-92): > 100 µM (inactive)
GI50 (EKVX): > 100 µM (inactive)
GI50 (M19-MEL): > 100 µM (inactive)
GI50 (XF498): > 100 µM (inactive)
GI50 (A549): > 100 µM (inactive)
GI50 (HT-29): > 100 µM (inactive)
GI50 (Malme-3M): > 100 µM (inactive)
GI50 (SR): > 100 µM (inactive)
GI50 (HCC 2998): > 100 µM (inactive)
GI50 (NCI-H460): > 100 µM (inactive)
GI50 (MOLT-4): > 100 µM (inactive)
GI50 (SF-539): > 100 µM (inactive)
GI50 (IGROV-1): > 100 µM (inactive)
GI50 (SK-OV-3): > 100 µM (inactive)
GI50 (LXFL 529): > 100 µM (inactive)
GI50 (KM-20L2): > 100 µM (inactive)
GI50 (SNB-78): > 100 µM (inactive)
GI50 (CAKI-1): > 100 µM (inactive)
GI50 (SK-MEL-28): > 100 µM (inactive)
GI50 (NCI-H23): > 100 µM (inactive)
GI50 (786-0): > 100 µM (inactive)
GI50 (UACC-257): > 100 µM (inactive)
GI50 (A498): > 100 µM (inactive)
GI50 (LOX IMVI): > 100 µM (inactive)
GI50 (U-251): > 100 µM (inactive)
GI50 (UO-31): > 100 µM (inactive)
GI50 (UACC-62): > 100 µM (inactive)
